Measured values as given in patent publication US12377104B1, “Methods for treating a fatty liver disease” (Madrigal Pharmaceuticals, Inc., priority 2024, dated 2025).

Assays:
[1] = tested on: noncirrhotic NASH with stage 2 or stage 3 fibrosis; assay: Trial 1 Month 12 histopathology efficacy analysis (F2 and F3); assay type: in vivo, human
Protocol: Patients were on stable doses of medications for diabetes, dyslipidemia, and hypertension. […] Two pathologists, Pathologist A and Pathologist B, independently read the liver biopsies for each patient. […] Liver fibrosis was evaluated on the NASH Clinical Research Network (CRN) fibrosis score as 0 to 4. […] No worsening of steatohepatitis was defined as no increase in NAS for ballooning, inflammation, or steatosis. […] Estimated using the Mantel-Haenszel method stratified by baseline type 2 diabetes status (presence or absence) and fibrosis stage (F2 or F3). 95% stratified Newcombe confidence intervals (CIs) are provided. Patients with missing liver biopsy at Month 12 were considered a non-responder.

[2] = MAESTRO-NASH: bone mineral density T score and fractures; design: species or system human; settings: in vivo
[3] = tested on: adults with biopsy-confirmed NASH; assay: MAESTRO-NASH: biomarkers PRO-C3 and P3NP/ELF; assay type: in vivo, human
Protocol: Pearson's correlation was used to examine the association between 2 PRO-C3 enzyme-linked immunosorbent assay (ELISA) assay methods (ELISA GEN1 and ELISA GEN2, NORDIC BIOSCIENCE) using PRO-C3 baseline data (N=919). The remainder of the analyses used the ELISA GEN2 assay. Mean SD or SE and median [Q1, Q3]were calculated to summarize PRO-C3 data. […] Mean difference with 95% CI and nominal P-values were obtained from the ANCOVA. Scatterplots and Spearman's correlations with 95% CIs were used to assess the associations between P3NP/ELF and PRO-C3 both at baseline and change from baseline at Week 52.

[4] = tested on: NASH patients with fibrosis stage F1A or F1C; assay: MAESTRO-NASH: exploratory F1 (F1A/F1C) population, endpoints and safety
[5] = F1B patients only, 80 mg, Week 52
[6] = F1B patients only, 100 mg, Week 52
[7] = F2 patients only, 80 mg, Week 52
[8] = F2 patients only, 100 mg, Week 52
[9] = F3 patients only, 80 mg, Week 52
[10] = F3 patients only, 100 mg, Week 52
[11] = Overall, 80 mg, Week 52, ELISA GEN2
[12] = Overall, 100 mg, Week 52, ELISA GEN2

SMILES: CC(C)c1cc(Oc2c(Cl)cc(-n3nc(C#N)c(=O)[nH]c3=O)cc2Cl)n[nH]c1=O [Resmetirom, 2-(3,5-dichloro-4-((5-isopropyl-6-oxo-1,6-dihydropyridazin-3-yl)oxy)phenyl)-3,5-dioxo-2,3,4,5-tetrahydro-1,2,4-triazine-6-carbonitrile]
- Improvement in liver fibrosis, no worsening of steatohepatitis: response rate, Pathologist A ([1]; 80 mg): 23%
- Improvement in liver fibrosis, no worsening of steatohepatitis: response rate, Pathologist B ([1]; 80 mg): 23%
- Improvement in liver fibrosis: difference in response rate vs. placebo (95% CI), Pathologist A ([1]; 80 mg): 8 (2, 14)
- Improvement in liver fibrosis: difference in response rate vs. placebo (95% CI), Pathologist B ([1]; 80 mg): 11 (5, 17)
- Resolution of steatohepatitis, no worsening of fibrosis: response rate, Pathologist A ([1]; 80 mg): 27%
- Resolution of steatohepatitis, no worsening of fibrosis: response rate, Pathologist B ([1]; 80 mg): 26%
- Resolution of steatohepatitis: difference in response rate vs. placebo (95% CI), Pathologist A ([1]; 80 mg): 14 (8, 20)
- Resolution of steatohepatitis: difference in response rate vs. placebo (95% CI), Pathologist B ([1]; 80 mg): 17 (11, 23)
- Improvement in liver fibrosis, no worsening of steatohepatitis: response rate, Pathologist A ([1]; 100 mg): 28%
- Improvement in liver fibrosis, no worsening of steatohepatitis: response rate, Pathologist B ([1]; 100 mg): 24%
- Improvement in liver fibrosis: difference in response rate vs. placebo (95% CI), Pathologist A ([1]; 100 mg): 13 (7, 20)
- Improvement in liver fibrosis: difference in response rate vs. placebo (95% CI), Pathologist B ([1]; 100 mg): 11 (5, 17)
- Resolution of steatohepatitis, no worsening of fibrosis: response rate, Pathologist A ([1]; 100 mg): 36%
- Resolution of steatohepatitis, no worsening of fibrosis: response rate, Pathologist B ([1]; 100 mg): 24%
- Resolution of steatohepatitis: difference in response rate vs. placebo (95% CI), Pathologist A ([1]; 100 mg): 23 (16, 30)
- Resolution of steatohepatitis: difference in response rate vs. placebo (95% CI), Pathologist B ([1]; 100 mg): 15 (9, 21)
- fractures and bone mineral density T scores [2]: no increases in fractures or substantial changes in bone mineral density T scores
- PRO-C3 change from baseline ([3]; 80 mg, Week 52): −17.93 (4.61)
- mean difference vs placebo in PRO-C3 change from baseline ([3]; 80 mg, Week 52): −16.9
- PRO-C3 change from baseline ([3]; 100 mg, Week 52): −23.05 (4.76)
- mean difference vs placebo in PRO-C3 change from baseline ([3]; 100 mg, Week 52): −22.1
- Change from Baseline in PRO-C3, Mean [3, 5]: -0.69 ng/mL
- Change from Baseline in PRO-C3, Median [3, 5]: 4.30 ng/mL
- Change from Baseline in PRO-C3, Mean [3, 6]: -7.20 ng/mL
- Change from Baseline in PRO-C3, Median [3, 6]: 0.40 ng/mL
- Change from Baseline in PRO-C3, Mean [3, 7]: -11.51 ng/mL
- Change from Baseline in PRO-C3, Median [3, 7]: -13.65 ng/mL
- Change from Baseline in PRO-C3, Mean [3, 8]: -15.79 ng/mL
- Change from Baseline in PRO-C3, Median [3, 8]: -10.10 ng/mL
- Change from Baseline in PRO-C3, Mean [3, 9]: -22.42 ng/mL
- Change from Baseline in PRO-C3, Median [3, 9]: -11.90 ng/mL
- Change from Baseline in PRO-C3, Mean [3, 10]: -27.42 ng/mL
- Change from Baseline in PRO-C3, Median [3, 10]: -18.30 ng/mL
- PRO-C3 change from baseline ([3]; F3 patients, 80 mg, Week 52): −22.42 (6.38)
- PRO-C3 change from baseline ([3]; F3 patients, 100 mg, Week 52): −27.42 (6.72)
- Change from Baseline in PRO-C3, Mean [3, 11]: -17.93 ng/mL
- Change from Baseline in PRO-C3, Median [3, 11]: -11.95 ng/mL
- Change from Baseline in PRO-C3, Mean [3, 12]: -23.05 ng/mL
- Change from Baseline in PRO-C3, Median [3, 12]: -13.40 ng/mL
- Any Serious TEAE, % ([4]; 80 mg): (20.0) %
- Any TEAEs leading to Study Discontinuation, % ([4]; 80 mg): (13.3) %
- TEAE Grade 1, % ([4]; 80 mg): (20.0) %
- TEAE Grade 2, % ([4]; 80 mg): (53.3) %
- TEAE Grade 3, % ([4]; 80 mg): (16.7) %
- Any TEAE, % ([4]; 80 mg (N = 30)): (93.3) %
- Fibrosis improvement endpoint ([4]; 80 mg (N = 30)): 21.7%
- Nash resolution endpoint ([4]; 80 mg (N = 30)): 38.3%
- Any Serious TEAE, % ([4]; 100 mg): (23.1) %
- Any TEAEs leading to Study Discontinuation, % ([4]; 100 mg): (11.5) %
- TEAE Grade 1, % ([4]; 100 mg): (19.2) %
- TEAE Grade 2, % ([4]; 100 mg): (46.2) %
- TEAE Grade 3, % ([4]; 100 mg): (15.4) %
- Any TEAE, % ([4]; 100 mg (N = 26)): (80.8) %
- Fibrosis improvement endpoint ([4]; 100 mg (N = 26)): 15.4%
- Nash resolution endpoint ([4]; 100 mg (N = 26)): 25.0%
- Abdominal pain upper, % ([4]; AEs >5%, 80 mg): (6.7) %
- Abdominal pain, % ([4]; AEs >5%, 80 mg): (3.3) %
- Arthralgia, % ([4]; AEs >5%, 80 mg): (20.0) %
- Back pain, % ([4]; AEs >5%, 80 mg): (13.3) %
- Constipation, % ([4]; AEs >5%, 80 mg): (13.3) %
- Diarrhea, % ([4]; AEs >5%, 80 mg): (26.7) %
- Dizziness, % ([4]; AEs >5%, 80 mg): (6.7) %
- Fatigue, % ([4]; AEs >5%, 80 mg): (10.0) %
- Headache, % ([4]; AEs >5%, 80 mg): (13.3) %
- Hypertension (AE), % ([4]; AEs >5%, 80 mg): (3.3) %
- Nausea, % ([4]; AEs >5%, 80 mg): (16.7) %
- Pruritus, % ([4]; AEs >5%, 80 mg): (6.7) %
- Pyrexia, % ([4]; AEs >5%, 80 mg): (6.7) %
- Rash, % ([4]; AEs >5%, 80 mg): (10.0) %
- Type 2 diabetes mellitus (AE), % ([4]; AEs >5%, 80 mg): (3.3) %
- Urinary tract infection, % ([4]; AEs >5%, 80 mg): (6.7) %
- Vomiting, % ([4]; AEs >5%, 80 mg): (3.3) %
- Weight decreased, % ([4]; AEs >5%, 80 mg): (3.3) %
- Abdominal pain upper, % ([4]; AEs >5%, 100 mg): (3.8) %
- Abdominal pain, % ([4]; AEs >5%, 100 mg): (7.7) %
- Arthralgia, % ([4]; AEs >5%, 100 mg): (7.7) %
- Back pain, % ([4]; AEs >5%, 100 mg): (11.5) %
- Constipation, % ([4]; AEs >5%, 100 mg): (7.7) %
- Cough, % ([4]; AEs >5%, 100 mg): (3.8) %
- Diarrhea, % ([4]; AEs >5%, 100 mg): (19.2) %
- Dizziness, % ([4]; AEs >5%, 100 mg): (7.7) %
- Fatigue, % ([4]; AEs >5%, 100 mg): (7.7) %
- Nausea, % ([4]; AEs >5%, 100 mg): (7.7) %
- Osteopenia, % ([4]; AEs >5%, 100 mg): (7.7) %
- Pruritus, % ([4]; AEs >5%, 100 mg): (15.4) %
- Rash, % ([4]; AEs >5%, 100 mg): (7.7) %
- Type 2 diabetes mellitus (AE), % ([4]; AEs >5%, 100 mg): (3.8) %
- Urinary tract infection, % ([4]; AEs >5%, 100 mg): (15.4) %
- Vomiting, % ([4]; AEs >5%, 100 mg): (11.5) %
- Weight decreased, % ([4]; AEs >5%, 100 mg): (11.5) %
